Like-named read-outs stand apart in the source and are kept apart here.
Columns and labels:
S. aureus ATCC 33591 = test system: S. aureus ATCC 33591
Procedure, shortened: (§1)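 Salt and pH tolerance was assessed by determining MICs in LYM medium containing 50–300 mM NaCl, 0.5–2.5 mM MgCl2, or at pH 4.5–6.5, alongside MH broth. The inoculum was 5 × 10^5 CFU/mL.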

S. aureus ATCC 33593 = test system: S. aureus ATCC 33593
Procedure, shortened: as §1

[1] = test system: Escherichia coli (ATCC 25922)
Procedure, shortened: as §1

[2] = test system: A. baumannii 14B0091 (Acinetobacter sp., BCRC number 14B0091)
Procedure, shortened: as §1

[3] = test system: A. baumannii 14B00100 (Acinetobacter sp., BCRC number 14B0100)
Procedure, shortened: as §1

[4] = test system: Pseudomonas aeruginosa Migula (ATCC 27853)
Procedure, shortened: as §1

Gram-negative bacteria = assay: Geometric mean MIC and therapeutic index, Gram-negative bacteria; type: cell-based; settings: Gram-negative bacteria; for GM G− (geometric mean of the MIC values): MH broth, MIC >50 µg/mL counted as 100 µg/mL; for Therapeutic Index (TI) G−: HC10/GM
Procedure, shortened: (§2)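 Overnight MH cultures were regrown and diluted to 5 × 10^5 CFU/mL, then exposed to peptides at 0.78–50 µg/mL final in MH or modified LYM broth following CLSI microdilution. MICs were combined into geometric means, and TI was computed as HC10 (human red blood cells) divided by GM.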

[5] = test system: Both Gram-positive and -negative bacteria; assay: Geometric mean MIC, therapeutic index and fold changes of MIC, whole panel of strains; type: cell-based; settings: for GM G−/+ (geometric mean of the MIC values): Both Gram-positive and -negative bacteria, MH broth, MIC >50 µg/mL counted as 100 µg/mL; for Therapeutic Index (TI) G−/+: HC10/GM, both Gram-positive and -negative bacteria
Procedure, shortened: as §2

[6] = LYM broth, 0 mM NaCl, 16 h, 37 °C
[7] = LYM broth, 50 mM NaCl, 16 h, 37 °C
[8] = LYM broth, 100 mM NaCl, 16 h, 37 °C
[9] = LYM broth, 200 mM (NaCl), 16 h, 37 °C
[10] = LYM broth, 300 mM (NaCl), 16 h, 37 °C
[11] = MH broth, 5 × 10^5 CFU/mL, 16 h, 37 °C, repeated three times

Ac-KWLAKKKKWRKWL-NH2 [Peptide W5K07]
MIC (S. aureus ATCC 33591; [6]): 25 µg/mL
MIC (S. aureus ATCC 33591; LYM broth, 0.5 mM MgCl2): 25 µg/mL
MIC (S. aureus ATCC 33591; LYM broth, 1.5 mM MgCl2): 25 µg/mL
MIC (S. aureus ATCC 33591; LYM broth, 2.5 mM MgCl2): 25 µg/mL
MIC (S. aureus ATCC 33591; [7]): 25 µg/mL
MIC (S. aureus ATCC 33591; [8]): 50 µg/mL
MIC (S. aureus ATCC 33591; [9]): 50 µg/mL
MIC (S. aureus ATCC 33591; [10]): >50 µg/mL
MIC (S. aureus ATCC 33591; LYM broth, pH 4.5): 25 µg/mL
MIC (S. aureus ATCC 33591; LYM broth, pH 5.5): 25 µg/mL
MIC (S. aureus ATCC 33591; LYM broth, pH 6.5): 12.5 µg/mL
MIC (S. aureus ATCC 33591; [11]): >50 µg/mL
MIC (S. aureus ATCC 33593; [6]): 25 µg/mL
MIC (S. aureus ATCC 33593; LYM broth, 0.5 mM MgCl2): 25 µg/mL
MIC (S. aureus ATCC 33593; LYM broth, 1.5 mM MgCl2): 25 µg/mL
MIC (S. aureus ATCC 33593; LYM broth, 2.5 mM MgCl2): 25 µg/mL
MIC (S. aureus ATCC 33593; [7]): 25 µg/mL
MIC (S. aureus ATCC 33593; [8]): 50 µg/mL
MIC (S. aureus ATCC 33593; [9]): 50 µg/mL
MIC (S. aureus ATCC 33593; [10]): >50 µg/mL
MIC (S. aureus ATCC 33593; LYM broth, pH 4.5): 25 µg/mL
MIC (S. aureus ATCC 33593; LYM broth, pH 5.5): 12.5 µg/mL
MIC (S. aureus ATCC 33593; LYM broth, pH 6.5): 12.5 µg/mL
MIC (S. aureus ATCC 33593; [11]): >50 µg/mL
MIC [1, 6]: 12.5 µg/mL
MIC ([1]; LYM broth, 0.5 mM MgCl2): 12.5 µg/mL
MIC ([1]; LYM broth, 1.5 mM MgCl2): 25 µg/mL
MIC ([1]; LYM broth, 2.5 mM MgCl2): 25 µg/mL
MIC [1, 7]: 25 µg/mL
MIC [1, 8]: 50 µg/mL
MIC [1, 9]: >50 µg/mL
MIC [1, 10]: >50 µg/mL
MIC ([1]; LYM broth, pH 4.5): 12.5 µg/mL
MIC ([1]; LYM broth, pH 5.5): 6.25 µg/mL
MIC ([1]; LYM broth, pH 6.5): 6.25 µg/mL
MIC [1, 11]: 50 µg/mL
MIC [2, 6]: 3.13 µg/mL
MIC ([2]; LYM broth, 0.5 mM MgCl2): 3.13 µg/mL
MIC ([2]; LYM broth, 1.5 mM MgCl2): 3.13 µg/mL
MIC ([2]; LYM broth, 2.5 mM MgCl2): 3.13 µg/mL
MIC [2, 7]: 6.25 µg/mL
MIC [2, 8]: 6.25 µg/mL
MIC [2, 9]: 50 µg/mL
MIC [2, 10]: >50 µg/mL
MIC ([2]; LYM broth, pH 4.5): 6.25 µg/mL
MIC ([2]; LYM broth, pH 5.5): 3.13 µg/mL
MIC ([2]; LYM broth, pH 6.5): 3.13 µg/mL
MIC [2, 11]: 12.5 µg/mL
MIC [3, 6]: 3.13 µg/mL
MIC ([3]; LYM broth, 0.5 mM MgCl2): 3.13 µg/mL
MIC ([3]; LYM broth, 1.5 mM MgCl2): 3.13 µg/mL
MIC ([3]; LYM broth, 2.5 mM MgCl2): 3.13 µg/mL
MIC [3, 7]: 6.25 µg/mL
MIC [3, 8]: 6.25 µg/mL
MIC [3, 9]: 25 µg/mL
MIC [3, 10]: 50 µg/mL
MIC ([3]; LYM broth, pH 4.5): 3.13 µg/mL
MIC ([3]; LYM broth, pH 5.5): 3.13 µg/mL
MIC ([3]; LYM broth, pH 6.5): 3.13 µg/mL
MIC [3, 11]: 12.5 µg/mL
MIC [4, 6]: 6.25 µg/mL
MIC ([4]; LYM broth, 0.5 mM MgCl2): 12.5 µg/mL
MIC ([4]; LYM broth, 1.5 mM MgCl2): 12.5 µg/mL
MIC ([4]; LYM broth, 2.5 mM MgCl2): 25 µg/mL
MIC [4, 7]: 12.5 µg/mL
MIC [4, 8]: 25 µg/mL
MIC [4, 9]: >50 µg/mL
MIC [4, 10]: >50 µg/mL
MIC ([4]; LYM broth, pH 4.5): 12.5 µg/mL
MIC ([4]; LYM broth, pH 5.5): 6.25 µg/mL
MIC ([4]; LYM broth, pH 6.5): 3.13 µg/mL
MIC [4, 11]: 50 µg/mL
GM G− (geometric mean of the MIC values) (Gram-negative bacteria): 21.8 µg/mL
Therapeutic Index (TI) G− (Gram-negative bacteria): 5.0
GM G−/+ (geometric mean of the MIC values) [5]: 43.5 µg/mL
Therapeutic Index (TI) G−/+ [5]: 2.5

Ac-KWLKWLAKKKKWR-NH2 [Peptide W5K04]
MIC (S. aureus ATCC 33591; [6]): 25 µg/mL
MIC (S. aureus ATCC 33591; LYM broth, 0.5 mM MgCl2): 25 µg/mL
MIC (S. aureus ATCC 33591; LYM broth, 1.5 mM MgCl2): 25 µg/mL
MIC (S. aureus ATCC 33591; LYM broth, 2.5 mM MgCl2): 50 µg/mL
MIC (S. aureus ATCC 33591; [7]): 50 µg/mL
MIC (S. aureus ATCC 33591; [8]): 50 µg/mL
MIC (S. aureus ATCC 33591; [9]): >50 µg/mL
MIC (S. aureus ATCC 33591; [10]): >50 µg/mL
MIC (S. aureus ATCC 33591; LYM broth, pH 4.5): 25 µg/mL
MIC (S. aureus ATCC 33591; LYM broth, pH 5.5): 12.5 µg/mL
MIC (S. aureus ATCC 33591; LYM broth, pH 6.5): 12.5 µg/mL
MIC (S. aureus ATCC 33591; [11]): >50 µg/mL
MIC (S. aureus ATCC 33593; [6]): 25 µg/mL
MIC (S. aureus ATCC 33593; LYM broth, 0.5 mM MgCl2): 25 µg/mL
MIC (S. aureus ATCC 33593; LYM broth, 1.5 mM MgCl2): 25 µg/mL
MIC (S. aureus ATCC 33593; LYM broth, 2.5 mM MgCl2): 25 µg/mL
MIC (S. aureus ATCC 33593; [7]): 25 µg/mL
MIC (S. aureus ATCC 33593; [8]): 50 µg/mL
MIC (S. aureus ATCC 33593; [9]): >50 µg/mL
MIC (S. aureus ATCC 33593; [10]): >50 µg/mL
MIC (S. aureus ATCC 33593; LYM broth, pH 4.5): 25 µg/mL
MIC (S. aureus ATCC 33593; LYM broth, pH 5.5): 25 µg/mL
MIC (S. aureus ATCC 33593; LYM broth, pH 6.5): 25 µg/mL
MIC (S. aureus ATCC 33593; [11]): >50 µg/mL
MIC [1, 6]: 6.25 µg/mL
MIC ([1]; LYM broth, 0.5 mM MgCl2): 12.5 µg/mL
MIC ([1]; LYM broth, 1.5 mM MgCl2): 12.5 µg/mL
MIC ([1]; LYM broth, 2.5 mM MgCl2): 12.5 µg/mL
MIC [1, 7]: 25 µg/mL
MIC [1, 8]: 50 µg/mL
MIC [1, 9]: >50 µg/mL
MIC [1, 10]: >50 µg/mL
MIC ([1]; LYM broth, pH 4.5): 6.25 µg/mL
MIC ([1]; LYM broth, pH 5.5): 3.13 µg/mL
MIC ([1]; LYM broth, pH 6.5): 3.13 µg/mL
MIC [1, 11]: 25 µg/mL
MIC [2, 6]: 1.56 µg/mL
MIC ([2]; LYM broth, 0.5 mM MgCl2): 1.56 µg/mL
MIC ([2]; LYM broth, 1.5 mM MgCl2): 3.13 µg/mL
MIC ([2]; LYM broth, 2.5 mM MgCl2): 3.13 µg/mL
MIC [2, 7]: 3.13 µg/mL
MIC [2, 8]: 3.13 µg/mL
MIC [2, 9]: 12.5 µg/mL
MIC [2, 10]: 50 µg/mL
MIC ([2]; LYM broth, pH 4.5): 3.13 µg/mL
MIC ([2]; LYM broth, pH 5.5): 3.13 µg/mL
MIC ([2]; LYM broth, pH 6.5): 1.56 µg/mL
MIC [2, 11]: 12.5 µg/mL
MIC [3, 6]: 1.56 µg/mL
MIC ([3]; LYM broth, 0.5 mM MgCl2): 1.56 µg/mL
MIC ([3]; LYM broth, 1.5 mM MgCl2): 3.13 µg/mL
MIC ([3]; LYM broth, 2.5 mM MgCl2): 3.13 µg/mL
MIC [3, 7]: 1.56 µg/mL
MIC [3, 8]: 3.13 µg/mL
MIC [3, 9]: 12.5 µg/mL
MIC [3, 10]: 25 µg/mL
MIC ([3]; LYM broth, pH 4.5): 1.56 µg/mL
MIC ([3]; LYM broth, pH 5.5): 1.56 µg/mL
MIC ([3]; LYM broth, pH 6.5): 1.56 µg/mL
MIC [3, 11]: 12.5 µg/mL
MIC [4, 6]: 12.5 µg/mL
MIC ([4]; LYM broth, 0.5 mM MgCl2): 6.25 µg/mL
MIC ([4]; LYM broth, 1.5 mM MgCl2): 12.5 µg/mL
MIC ([4]; LYM broth, 2.5 mM MgCl2): 12.5 µg/mL
MIC [4, 7]: 12.5 µg/mL
MIC [4, 8]: 25 µg/mL
MIC [4, 9]: >50 µg/mL
MIC [4, 10]: >50 µg/mL
MIC ([4]; LYM broth, pH 4.5): 6.25 µg/mL
MIC ([4]; LYM broth, pH 5.5): 6.25 µg/mL
MIC ([4]; LYM broth, pH 6.5): 3.13 µg/mL
MIC [4, 11]: 50 µg/mL
GM G− (geometric mean of the MIC values) (Gram-negative bacteria): 18.9 µg/mL
Therapeutic Index (TI) G− (Gram-negative bacteria): 5.7
GM G−/+ (geometric mean of the MIC values) [5]: 35.4 µg/mL
Therapeutic Index (TI) G−/+ [5]: 3.1
